The text below walks through data of ChEMBL document CHEMBL3352646, “New imidazo[1,2-b]pyrazoles as anticancer agents: synthesis, biological evaluation and structure activity relationship analysis” (Eur J Med Chem, 2014).

Where only a bound is given, the exact number is not on record here.

Tested on in one data set: not listed separately
The experiment in a line: Anticancer activity human U373 cells assessed as growth inhibition by MTT colorimetric assay. The note with it: U373 MG. Type of data set: functional, cell-based, U-373MG ATCC. Background: Tetrazolium dyes change colour on reduction, which living cells bring about.
As for `COc1ccc(-c2cn3nc(-c4ccccc4)c(C(=O)N4CCOCC4)c3n2C)cc1`, the IC50 – broadly, the concentration that gives 50% inhibition – was over 100 µM.

For `COc1ccc(-c2cn3nc(-c4ccccc4)c(CN4CCOCC4)c3n2C)cc1`, the IC50 worked out at 4 µM.

Regarding `COc1ccc(-c2c(-c3ccc(C)cc3)n3nc(-c4ccccc4)c(CN4CCCCC4)c3n2C)cc1`, the IC50 is 33 µM.

For `COc1ccc(-c2c(-c3ccccc3C#N)n3nc(-c4ccccc4)cc3n2C)cc1`, the IC50 worked out at 13 µM.

For the compound `COc1ccc(-c2c(-c3ccc(C(F)(F)F)cc3)n(C)c3c(CN4CCOCC4)c(-c4ccccc4)nn23)cc1`, the IC50 was found to be 20 µM.

For the compound `COc1ccc(-c2c(-c3ccc(C(F)(F)F)cc3)n3nc(-c4ccccc4)c(CN4CCN(C)CC4)c3n2C)cc1`, the IC50 turned out to be 24 µM.

As for `COc1ccc(-c2c(-c3ccncc3)n3nc(-c4ccccc4)c(CN4CCOCC4)c3n2C)cc1`, the IC50 is 12 µM.

In the case of `COc1ccc(-c2cn3nc(-c4ccccc4)c(C(=O)N4CCN(C)CC4)c3n2C)cc1`, the IC50 was over 100 µM.

Consider `COc1ccc(-c2c(-c3ccc(C)cc3)n3nc(-c4ccccc4)c(CN4CCOCC4)c3n2C)cc1`, for which the IC50 amounted to 30 µM.

With `COc1ccc(-c2c(-c3ccc(C(F)(F)F)cc3)n3nc(-c4ccccc4)cc3n2C)cc1`, the IC50 was over 100 µM.

As for `COc1ccc(-c2c(-c3cccc(C)c3)n3nc(-c4ccccc4)cc3n2C)cc1`, the IC50 turned out to be 46 µM.

Take `COc1ccc(-c2c(-c3ccc(OC)cc3)n3nc(-c4ccccc4)cc3n2C)cc1`: the IC50 is 96 µM.

Take `COc1ccc(-c2c(-c3ccc(C)cc3)n3nc(-c4ccccc4)c(CN4CCN(C)CC4)c3n2C)cc1`: the IC50 was 19 µM.

With `COc1ccc(-c2c(-c3ccc(C(F)(F)F)cc3)n3nc(-c4ccccc4)c(CN4CCOCC4)c3n2C)cc1`, the IC50 came out at 0.8 µM.

For a further data set, the system named is MCF7. The experiment in a line: Anticancer activity human MCF7 cells assessed as growth inhibition by MTT colorimetric assay. Type of data set: functional, cell-based.
Details: not given
For the compound `COc1ccc(-c2cn3nc(-c4ccccc4)c(C(=O)N4CCOCC4)c3n2C)cc1`, the IC50 was over 100 µM.

Regarding `COc1ccc(-c2cn3nc(-c4ccccc4)c(CN4CCOCC4)c3n2C)cc1`, the IC50 was 5 µM.

`COc1ccc(-c2c(-c3ccc(C)cc3)n3nc(-c4ccccc4)c(CN4CCCCC4)c3n2C)cc1`: the IC50 was 72 µM.

Regarding `COc1ccc(-c2c(-c3ccccc3C#N)n3nc(-c4ccccc4)cc3n2C)cc1`, the IC50 was found to be 35 µM.

Consider `COc1ccc(-c2c(-c3ccc(C(F)(F)F)cc3)n(C)c3c(CN4CCOCC4)c(-c4ccccc4)nn23)cc1`, for which the IC50 was 59 µM.

Regarding `COc1ccc(-c2c(-c3ccc(C(F)(F)F)cc3)n3nc(-c4ccccc4)c(CN4CCN(C)CC4)c3n2C)cc1`, the IC50 amounted to 20 µM.

On to `COc1ccc(-c2c(-c3ccncc3)n3nc(-c4ccccc4)c(CN4CCOCC4)c3n2C)cc1`, for which the IC50 was 16 µM.

Turning to `COc1ccc(-c2cn3nc(-c4ccccc4)c(C(=O)N4CCN(C)CC4)c3n2C)cc1`, the IC50 came to 88 µM.

Consider `COc1ccc(-c2c(-c3ccc(C)cc3)n3nc(-c4ccccc4)c(CN4CCOCC4)c3n2C)cc1`, for which the IC50 amounted to 45 µM.

For the compound `COc1ccc(-c2c(-c3ccc(C(F)(F)F)cc3)n3nc(-c4ccccc4)cc3n2C)cc1`, the IC50 was over 100 µM.

For `COc1ccc(-c2c(-c3cccc(C)c3)n3nc(-c4ccccc4)cc3n2C)cc1`, the IC50 is 75 µM.

With `COc1ccc(-c2c(-c3ccc(OC)cc3)n3nc(-c4ccccc4)cc3n2C)cc1`, the IC50 was over 100 µM.

As to `COc1ccc(-c2c(-c3ccc(C)cc3)n3nc(-c4ccccc4)c(CN4CCN(C)CC4)c3n2C)cc1`, the IC50 was 18 µM.

Take `COc1ccc(-c2c(-c3ccc(C(F)(F)F)cc3)n3nc(-c4ccccc4)c(CN4CCOCC4)c3n2C)cc1`: the IC50 worked out at 1.9 µM.

Tested on in another data set: not listed separately
As to the kind of experiment: Cytotoxicity against human NHLF cells by MTT colorimetric assay. The class given is cell-based.
Details: not given
For the compound `COc1ccc(-c2c(-c3ccc(C(F)(F)F)cc3)n3nc(-c4ccccc4)c(CN4CCOCC4)c3n2C)cc1`, the Activity entry is “Non-toxic”.

The test system of a further data set is NHDF. As to the kind of experiment: Cytotoxicity against human NHDF cells by MTT colorimetric assay. Type of data set: cell-based.
Details: not given
`COc1ccc(-c2c(-c3ccc(C(F)(F)F)cc3)n3nc(-c4ccccc4)c(CN4CCOCC4)c3n2C)cc1`: the Activity entry is “Non-toxic”.

A further data set has as its system SK-MEL-28. As to the kind of experiment: Anticancer activity human SK-MEL-28 cells assessed as growth inhibition by MTT colorimetric assay. The class given is functional, cell-based.
Details: not given
`COc1ccc(-c2cn3nc(-c4ccccc4)c(C(=O)N4CCOCC4)c3n2C)cc1`: the IC50 is over 100 µM.

In the case of `COc1ccc(-c2cn3nc(-c4ccccc4)c(CN4CCOCC4)c3n2C)cc1`, the IC50 is 14 µM.

For the compound `COc1ccc(-c2c(-c3ccc(C)cc3)n3nc(-c4ccccc4)c(CN4CCCCC4)c3n2C)cc1`, the IC50 came to 39 µM.

As for `COc1ccc(-c2c(-c3ccccc3C#N)n3nc(-c4ccccc4)cc3n2C)cc1`, the concentration for half-maximal inhibition (IC50) was 16 µM.

In the case of `COc1ccc(-c2c(-c3ccc(C(F)(F)F)cc3)n(C)c3c(CN4CCOCC4)c(-c4ccccc4)nn23)cc1`, the concentration for half-maximal inhibition (IC50) worked out at 28 µM.

`COc1ccc(-c2c(-c3ccc(C(F)(F)F)cc3)n3nc(-c4ccccc4)c(CN4CCN(C)CC4)c3n2C)cc1`: the IC50 stood at 19 µM.

`COc1ccc(-c2c(-c3ccncc3)n3nc(-c4ccccc4)c(CN4CCOCC4)c3n2C)cc1`: the IC50 was found to be 5 µM.

Regarding `COc1ccc(-c2cn3nc(-c4ccccc4)c(C(=O)N4CCN(C)CC4)c3n2C)cc1`, the IC50 was over 100 µM.

Consider `COc1ccc(-c2c(-c3ccc(C)cc3)n3nc(-c4ccccc4)c(CN4CCOCC4)c3n2C)cc1`, for which the half-inhibitory concentration (IC50) was over 100 µM.

`COc1ccc(-c2c(-c3ccc(C(F)(F)F)cc3)n3nc(-c4ccccc4)cc3n2C)cc1`: the IC50 was over 100 µM.

For the compound `COc1ccc(-c2c(-c3cccc(C)c3)n3nc(-c4ccccc4)cc3n2C)cc1`, the IC50 is 29 µM.

Regarding `COc1ccc(-c2c(-c3ccc(OC)cc3)n3nc(-c4ccccc4)cc3n2C)cc1`, the IC50 is over 100 µM.

Take `COc1ccc(-c2c(-c3ccc(C)cc3)n3nc(-c4ccccc4)c(CN4CCN(C)CC4)c3n2C)cc1`: the IC50 was 21 µM.

Regarding `COc1ccc(-c2c(-c3ccc(C(F)(F)F)cc3)n3nc(-c4ccccc4)c(CN4CCOCC4)c3n2C)cc1`, the IC50 came to 2.3 µM.

Tested on in a further data set: not listed separately
As to the kind of experiment: Anticancer activity human Hs683 cells assessed as growth inhibition by MTT colorimetric assay. The class given is functional, cell-based. Conditions: Hs 683.
Turning to `COc1ccc(-c2cn3nc(-c4ccccc4)c(C(=O)N4CCOCC4)c3n2C)cc1`, the IC50 was over 100 µM.

Regarding `COc1ccc(-c2cn3nc(-c4ccccc4)c(CN4CCOCC4)c3n2C)cc1`, the IC50 amounted to 5 µM.

In the case of `COc1ccc(-c2c(-c3ccc(C)cc3)n3nc(-c4ccccc4)c(CN4CCCCC4)c3n2C)cc1`, the IC50 came out at 37 µM.

On to `COc1ccc(-c2c(-c3ccccc3C#N)n3nc(-c4ccccc4)cc3n2C)cc1`, for which the IC50 was determined as 26 µM.

For `COc1ccc(-c2c(-c3ccc(C(F)(F)F)cc3)n(C)c3c(CN4CCOCC4)c(-c4ccccc4)nn23)cc1`, the IC50 came out at 62 µM.

For the compound `COc1ccc(-c2c(-c3ccc(C(F)(F)F)cc3)n3nc(-c4ccccc4)c(CN4CCN(C)CC4)c3n2C)cc1`, the IC50 is 21 µM.

Take `COc1ccc(-c2c(-c3ccncc3)n3nc(-c4ccccc4)c(CN4CCOCC4)c3n2C)cc1`: the IC50 came to 3 µM.

`COc1ccc(-c2cn3nc(-c4ccccc4)c(C(=O)N4CCN(C)CC4)c3n2C)cc1`: the IC50 is over 100 µM.

On to `COc1ccc(-c2c(-c3ccc(C)cc3)n3nc(-c4ccccc4)c(CN4CCOCC4)c3n2C)cc1`, for which the IC50 was found to be 48 µM.

Take `COc1ccc(-c2c(-c3ccc(C(F)(F)F)cc3)n3nc(-c4ccccc4)cc3n2C)cc1`: the IC50 is over 100 µM.

For the compound `COc1ccc(-c2c(-c3cccc(C)c3)n3nc(-c4ccccc4)cc3n2C)cc1`, the IC50 came out at 59 µM.

Take `COc1ccc(-c2c(-c3ccc(OC)cc3)n3nc(-c4ccccc4)cc3n2C)cc1`: the IC50 is over 100 µM.

With `COc1ccc(-c2c(-c3ccc(C)cc3)n3nc(-c4ccccc4)c(CN4CCN(C)CC4)c3n2C)cc1`, the IC50 amounted to 18 µM.

Regarding `COc1ccc(-c2c(-c3ccc(C(F)(F)F)cc3)n3nc(-c4ccccc4)c(CN4CCOCC4)c3n2C)cc1`, the 50% inhibitory concentration (IC50) was found to be 0.9 µM.

Tested on in the next data set: not listed separately
As to the kind of experiment: Anticancer activity mouse B16F10 cells assessed as growth inhibition by MTT colorimetric assay. The class given is functional, cell-based. Conditions: B16-F10.
On to `COc1ccc(-c2cn3nc(-c4ccccc4)c(C(=O)N4CCOCC4)c3n2C)cc1`, for which the IC50 stood at 76 µM.

As to `COc1ccc(-c2cn3nc(-c4ccccc4)c(CN4CCOCC4)c3n2C)cc1`, the IC50 was 5 µM.

Regarding `COc1ccc(-c2c(-c3ccc(C)cc3)n3nc(-c4ccccc4)c(CN4CCCCC4)c3n2C)cc1`, the IC50 is 25 µM.

Regarding `COc1ccc(-c2c(-c3ccc(C(F)(F)F)cc3)n(C)c3c(CN4CCOCC4)c(-c4ccccc4)nn23)cc1`, the IC50 is 38 µM.

Take `COc1ccc(-c2c(-c3ccc(C(F)(F)F)cc3)n3nc(-c4ccccc4)c(CN4CCN(C)CC4)c3n2C)cc1`: the IC50 was 23 µM.

Consider `COc1ccc(-c2c(-c3ccncc3)n3nc(-c4ccccc4)c(CN4CCOCC4)c3n2C)cc1`, for which the IC50 was determined as 2 µM.

For `COc1ccc(-c2cn3nc(-c4ccccc4)c(C(=O)N4CCN(C)CC4)c3n2C)cc1`, the IC50 stood at 74 µM.

As for `COc1ccc(-c2c(-c3ccc(C)cc3)n3nc(-c4ccccc4)c(CN4CCOCC4)c3n2C)cc1`, the IC50 stood at 46 µM.

On to `COc1ccc(-c2c(-c3ccc(C)cc3)n3nc(-c4ccccc4)c(CN4CCN(C)CC4)c3n2C)cc1`, for which the IC50 turned out to be 12 µM.

Turning to `COc1ccc(-c2c(-c3ccc(C(F)(F)F)cc3)n3nc(-c4ccccc4)c(CN4CCOCC4)c3n2C)cc1`, the IC50 was 2.1 µM.

Another data set relates to A549. The experiment in a line: Anticancer activity human A549 cells assessed as growth inhibition by MTT colorimetric assay. Type of data set: functional, cell-based.
Details: not given
For the compound `COc1ccc(-c2cn3nc(-c4ccccc4)c(C(=O)N4CCOCC4)c3n2C)cc1`, the IC50 is over 100 µM.

With `COc1ccc(-c2cn3nc(-c4ccccc4)c(CN4CCOCC4)c3n2C)cc1`, the half-maximal inhibitory concentration (IC50) stood at 9 µM.

As for `COc1ccc(-c2c(-c3ccc(C)cc3)n3nc(-c4ccccc4)c(CN4CCCCC4)c3n2C)cc1`, the IC50 is 51 µM.

As to `COc1ccc(-c2c(-c3ccccc3C#N)n3nc(-c4ccccc4)cc3n2C)cc1`, the IC50 amounted to 22 µM.

As to `COc1ccc(-c2c(-c3ccc(C(F)(F)F)cc3)n(C)c3c(CN4CCOCC4)c(-c4ccccc4)nn23)cc1`, the IC50 amounted to 37 µM.

Turning to `COc1ccc(-c2c(-c3ccc(C(F)(F)F)cc3)n3nc(-c4ccccc4)c(CN4CCN(C)CC4)c3n2C)cc1`, the IC50 was determined as 20 µM.

For `COc1ccc(-c2c(-c3ccncc3)n3nc(-c4ccccc4)c(CN4CCOCC4)c3n2C)cc1`, the IC50 was 5 µM.

In the case of `COc1ccc(-c2cn3nc(-c4ccccc4)c(C(=O)N4CCN(C)CC4)c3n2C)cc1`, the IC50 is over 100 µM.

Regarding `COc1ccc(-c2c(-c3ccc(C)cc3)n3nc(-c4ccccc4)c(CN4CCOCC4)c3n2C)cc1`, the IC50 stood at 37 µM.

For `COc1ccc(-c2c(-c3ccc(C(F)(F)F)cc3)n3nc(-c4ccccc4)cc3n2C)cc1`, the IC50 is over 100 µM.

Consider `COc1ccc(-c2c(-c3cccc(C)c3)n3nc(-c4ccccc4)cc3n2C)cc1`, for which the IC50 was 31 µM.

For the compound `COc1ccc(-c2c(-c3ccc(OC)cc3)n3nc(-c4ccccc4)cc3n2C)cc1`, the IC50 is over 100 µM.

Take `COc1ccc(-c2c(-c3ccc(C)cc3)n3nc(-c4ccccc4)c(CN4CCN(C)CC4)c3n2C)cc1`: the IC50 was 20 µM.

In the case of `COc1ccc(-c2c(-c3ccc(C(F)(F)F)cc3)n3nc(-c4ccccc4)c(CN4CCOCC4)c3n2C)cc1`, the IC50 was determined as 1.3 µM.
